From ChEMBL document CHEMBL3297723, “Ethyl 1,8-naphthyridone-3-carboxylates downregulate human papillomavirus-16 E6 and E7 oncogene expression” (J Med Chem, 2014) come the findings set out here.

Data set [1] is described as follows: Cytotoxicity against human CaSki cells assessed as inhibition of cell proliferation at 10 uM after 24 hrs by CellTiter96 assay. It is filed as cell-based. Particulars: ca-ski.
The subject of data set [2] is P21. The experiment in a line: Inhibition of HPV-16 LCR transcriptional activity in human P21 cells at 100 uM after 24 hrs by luciferase reporter gene assay. It is filed as cell-based. As to conditions: Alphapapillomavirus 9.
For data set [3], the system named is P21. The experiment in a line: Inhibition of HPV-16 LCR transcriptional activity in human P21 cells at 30 uM after 24 hrs by luciferase reporter gene assay. Particulars: Alphapapillomavirus 9. It is filed as cell-based.
The nature of data set [4]: Selectivity index, ratio of CC50 for human P21 cells to IC50 for HPV-16 LCR transcriptional activity in human P21 cells. The format is functional.
A short description of data set [5]: (§1) Inhibition of HPV-16 LCR transcriptional activity in human P21 cells after 24 hrs by luciferase reporter gene assay. It is filed as cell-based. As to conditions: Alphapapillomavirus 9, P21, 24 h.
The nature of data set [6]: Cytotoxicity against human P21 cells assessed as inhibition of cell viability after 24 hrs by CellTiter96 assay. The format is cell-based.
Data set [7] in a line: Drug uptake in human CaSki cells at 10 uM after 1 hr by reverse-phase HPLC analysis. As to conditions: ca-ski. The format is ADME, cell-based.
A short description of data set [8]: Drug uptake in human CaSki cells at 10 uM after 16 hrs by reverse-phase HPLC analysis. It is filed as ADME, cell-based. Particulars: ca-ski.
The subject of another data set is Human orthopneumovirus. The experiment in a line: Antiviral activity against RSV infected in human Hep2 cells assessed as protection against virus-induced cytopathogenicity. It is filed as functional, organism-based. As to conditions: human respiratory syncytial virus; HEp-2.
The subject of the next data set is Rotavirus. The experiment in a line: Antiviral activity against HRV infected in […] cells assessed as protection against virus-induced cytopathogenicity. It is filed as functional, organism-based.
The test system of data set [9] is Vesicular stomatitis virus. The experiment in a line: Antiviral activity against VSV infected in african green monkey Vero cells assessed as protection against virus-induced cytopathogenicity. It is filed as functional, organism-based.
For data set [10], the system named is Human immunodeficiency virus 1. The data set is described as follows: Antiviral activity against HIV-1 3B infected in human MT4 cells assessed as protection against virus-induced cytopathogenicity. The format is functional, organism-based.
A further data set deals with Human alphaherpesvirus 2. The experiment in a line: Antiviral activity against HSV2 infected in african green monkey Vero cells assessed as protection against virus-induced cytopathogenicity. It is filed as functional, organism-based.
Data set [11] concerns Ca-Ski. The data set is described as follows: Inhibition of LCR-mediated E6 mRNA expression in HPV-16-positive human CaSki cells at 10 uM after 24 hrs by RT-PCR analysis. The format is cell-based. As to conditions: Alphapapillomavirus 9.
Data set [12] concerns Ca-Ski. The data set is described as follows: Inhibition of LCR-mediated E7 mRNA expression in HPV-16-positive human CaSki cells at 10 uM after 24 hrs by RT-PCR analysis. It is filed as cell-based. Particulars: Alphapapillomavirus 9.
The test system of data set [13] is P21. Described as §1. The format is cell-based. Particulars: Alphapapillomavirus 9.

pIC50: −log10 of the molar value. Activity calls are given as the source filed them. The calls are words filed in the database; no cut-off is given here. Some results are limits rather than exact numbers.

`O=C(O)c1cn(Cc2cccc(Cl)c2F)c2nc(N3CCN(c4ccccn4)CC3)ccc2c1=O`: the Activity entry in data set [1] is listed as “Non-toxic”. Moreover, the inhibition in the data set with P21 [2] came out at 25.8%; with P21 [3], 30.5%.
`CCOC(=O)c1cn(Cc2ccccc2F)c2nc(N3CCN(c4nc5ccccc5s4)CC3)ccc2c1=O`: in [4], the “Ratio CC50/IC50” value was greater than 23.9. Further, the pIC50 in data set [5] was 5.38. Further, the inhibition in the data set on P21 [2] came to 75.6%; in the data set with P21 [3], 88.6%. In data set [6], the CC50 at 24 h is greater than 100 µM.
As for `O=C(O)c1cn(Cc2ccccn2)c2nc(N3CCN(c4nc5ccccc5s4)CC3)ccc2c1=O`, the inhibition in the data set on P21 [2] turned out to be 61%; with P21 [3], 24%.
Take `CCOC(=O)c1cn(Cc2ccccc2)c2nc(N3CCN(c4nc5ccccc5s4)CC3)ccc2c1=O`: the Activity entry in data set [1] was “Non-toxic”. Besides, the “Ratio CC50/IC50” value in data set [4] amounted to 268. The same compound had a pIC50 in data set [5] of 6.64. Besides, the inhibition was 98.1% in the data set on P21 [2] and 98.2% in the data set with P21 [3]. Further, the CC50 at 24 h in data set [6] amounted to 61.7 µM.
As to `O=C(O)c1cn(Cc2cccc(Cl)c2F)c2nc(N3CCN(c4nccs4)CC3)ccc2c1=O`, the Activity entry in data set [1] was “Non-toxic”. In addition, the Drug uptake is reported as 20% in data set [7] and 63% in data set [8]. In addition, the values for the inhibition with P21 [2] and in the data set with P21 [3] were 2.1% and 7.39%, respectively.
As for `CCOC(=O)c1cn(Cc2cccc(Cl)c2)c2nc(N3CCN(c4nc5ccccc5s4)CC3)ccc2c1=O`, the Activity result in [1] is given as “Non-toxic”. Also, in data set [4], the “Ratio CC50/IC50” value is recorded as greater than 38.1. In data set [5], this compound showed a pIC50 of 5.58. Besides, the inhibition with P21 [2] and in the data set on P21 [3] was 96% each time. In data set [6], the CC50 at 24 h was greater than 100 µM.
Regarding `CCOC(=O)c1cn(Cc2nc3ccccc3[nH]2)c2nc(N3CCN(c4nc5ccccc5s4)CC3)ccc2c1=O`, the inhibition is 45.5% in the data set with P21 [2] and 38.3% in the data set with P21 [3].
On to `O=C(O)c1cn(Cc2cccc(Cl)c2F)c2nc(N3CCN(c4ccc5ccccc5n4)CC3)ccc2c1=O`, for which, in [1], the Activity entry was “Non-toxic”. Also, the Drug uptake in data set [7] was 20%; in data set [8] it was 38%. Moreover, the “Ratio CC50/IC50” value in [4] came out at 6.1. Moreover, in [5], the negative logarithm of the IC50 (pIC50) is 5.54. Also, the inhibition with P21 [2] was 100%; with P21 [3], 99.3%. Moreover, the CC50 at 24 h in [6] is 17.6 µM.
With `CCOC(=O)c1cn(CCc2ccc(Cl)cc2)c2nc(N3CCN(c4nc5ccccc5s4)CC3)ccc2c1=O`, the inhibition in the data set with P21 [2] was 50.4%; in the data set with P21 [3], 49.6%.
Consider `CCOC(=O)c1cn(Cc2ccccn2)c2nc(N3CCN(c4nc5ccccc5s4)CC3)ccc2c1=O`, for which the “Ratio CC50/IC50” value in [4] was 6.5. In addition, the pIC50 in data set [5] was 5.28. Moreover, the inhibition was found to be 73.4% in the data set on P21 [2] and 63.1% in the data set on P21 [3]. Besides, the CC50 at 24 h in data set [6] is 34.6 µM.
`CCOC(=O)c1cn(Cc2cccc(Cl)c2F)c2nc(N3CCN(c4nc5ccccc5s4)CC3)ccc2c1=O`: the outcome (in the data set with Human orthopneumovirus; in [9]; with Human alphaherpesvirus 2) was Active. Moreover, the outcome (in the data set on Rotavirus; in [10]) was inactive. For the same compound, the Activity entry in data set [1] was “Non-toxic”. In addition, the Drug uptake result is recorded as “Not Active” in [7] and 15% in data set [8]. Further, in data set [4], the “Ratio CC50/IC50” value is greater than 385. In data set [5], the pIC50 is 6.59. Also, the inhibition in the data set on P21 [2] is 94.9%; in the data set on P21 [3] it was 82.8%. In addition, in [6], the CC50 at 24 h is greater than 100 µM.
Take `CCOC(=O)c1cn(CCc2ccccn2)c2nc(N3CCN(c4nc5ccccc5s4)CC3)ccc2c1=O`: the “Ratio CC50/IC50” value in [4] came to 16.2. Besides, the negative-log IC50 (pIC50) in [5] was 5.98. Further, the inhibition in the data set on P21 [2] was 100%; with P21 [3] it was 87%. Further, the CC50 at 24 h in data set [6] turned out to be 17.1 µM.
Consider `CCOC(=O)c1cn(Cc2cccc(Cl)c2F)c2nc(N3CCN(c4ccc5ccccc5n4)CC3)ccc2c1=O`, for which the Activity result in data set [1] was “Non-toxic”. Besides, the results for the Drug uptake result in [7] and in [8] were “Not Active” and 40%, respectively. Moreover, in data set [4], the “Ratio CC50/IC50” value is 282. In [5], this compound gave a pIC50 of 6.68. Moreover, the inhibition with P21 [2] came to 93.7%; with Ca-Ski [11] it was 61.5%; in the data set with P21 [3], 92.3%; in the data set with Ca-Ski [12] it was 57.4%. The CC50 at 24 h in data set [6] came out at 59.3 µM.
For the compound `O=C(O)c1cn(CCc2ccccn2)c2nc(N3CCN(c4nc5ccccc5s4)CC3)ccc2c1=O`, the inhibition with P21 [2] and in the data set with P21 [3] was 0% in each case.
Regarding `CCOC(=O)c1cn(Cc2ccc(Cl)cc2)c2nc(N3CCN(c4nc5ccccc5s4)CC3)ccc2c1=O`, the Activity entry in data set [1] is listed as “Non-toxic”. Also, the “Ratio CC50/IC50” value in data set [4] is greater than 42.1. Moreover, the pIC50 in [5] is 5.63. The inhibition in the data set on P21 [2] and in the data set on P21 [3] was 90% throughout. Moreover, the CC50 at 24 h in data set [6] was greater than 100 µM.
Take `CCOC(=O)c1cn(Cc2ccc3[nH]ccc3c2)c2nc(N3CCN(c4nc5ccccc5s4)CC3)ccc2c1=O`: the Activity entry in data set [1] is reported as “Non-toxic”. For the same compound, the “Ratio CC50/IC50” value in [4] is on record as greater than 769. This compound also showed a pIC50 in data set [5] of 6.89. In addition, the values for the inhibition with P21 [2] and with P21 [3] were 90.2% and 93.6%, respectively. Besides, in data set [6], the CC50 at 24 h was greater than 100 µM.
For the compound `CCOC(=O)c1cn(Cc2cccc(Cl)c2F)c2nc(N3CCN(c4nc5ccccc5o4)CC3)ccc2c1=O`, the “Ratio CC50/IC50” value in [4] was greater than 256. The compound further showed a pIC50 in [5] of 6.41. The figures for the inhibition in the data set with P21 [2] and in the data set with P21 [3] were 83.9% and 88.1%, respectively. For the same compound, the CC50 at 24 h in data set [6] was greater than 100 µM.
For the compound `CCOC(=O)c1cn(Cc2cccc(Cl)c2F)c2nc(N3CCN(c4nccs4)CC3)ccc2c1=O`, the Activity entry in data set [1] is “Non-toxic”. In addition, the Drug uptake entry is reported as “Not Active” in [7] and 70% in data set [8]. The “Ratio CC50/IC50” value in data set [4] turned out to be 20.9. Further, the pIC50 in data set [5] was 5.92. The inhibition with P21 [2] came to 99.7%; with Ca-Ski [11] it was 71.7%; in the data set on P21 [3], 98%; in the data set with Ca-Ski [12], 72.7%. Further, the half-maximal cytotoxic concentration (CC50) at 24 h in data set [6] is 25.3 µM.
On to `CCOC(=O)c1cn(Cc2cccc(Cl)c2F)c2nc(N3CCN(c4ccccn4)CC3)ccc2c1=O`, for which the Activity entry in [1] was “Non-toxic”. The “Ratio CC50/IC50” value in [4] is greater than 89.2. The inhibition result is “Dose-dependent effect” with P21 [13], 93.1% in the data set on P21 [2] and 89.2% with P21 [3]. Further, the pIC50 in data set [5] is 5.95. Moreover, the CC50 at 24 h in data set [6] was greater than 100 µM.
Turning to `O=C(O)c1cn(Cc2cccc(Cl)c2F)c2nc(N3CCN(c4nc5ccccc5s4)CC3)ccc2c1=O`, the Activity result in data set [1] is listed as “Non-toxic”. For the same compound, the Drug uptake in data set [7] is 20%; in data set [8], 35%. Besides, the inhibition with P21 [2] turned out to be 56%; in the data set with P21 [3] it was 38.3%.
Consider `CCOC(=O)c1cn(Cc2ccc(C(F)(F)F)cc2)c2nc(N3CCN(c4nc5ccccc5s4)CC3)ccc2c1=O`, for which, in data set [4], the “Ratio CC50/IC50” value was 7.16. The compound also gave a pIC50 in data set [5] of 4.96. Also, the inhibition in the data set with P21 [2] came out at 89.3%; in the data set on P21 [3], 67.5%. In addition, in data set [6], the CC50 at 24 h was determined as 78.2 µM.
Regarding `O=C(O)c1cn(Cc2ccccc2)c2nc(N3CCN(c4nc5ccccc5s4)CC3)ccc2c1=O`, the Activity entry in data set [1] was “Non-toxic”. Besides, the “Ratio CC50/IC50” value in [4] was 15.2. For the same compound, in data set [5], the pIC50 is 5.34. Further, the inhibition in the data set with P21 [2] and in the data set on P21 [3] was 100% each time. Also, the CC50 at 24 h in data set [6] came out at 69.6 µM.
